Measured values from article PMC9223764, “In Vitro Selection and Characterization of HIV-1 Variants with Increased Resistance to LP-40, Enfuvirtide-Based Lipopeptide Inhibitor” (International Journal of Molecular Sciences, 2022).
Read-outs that look alike come from different tables or passages of the source. Where a SMILES comes first, the peptide text is derived from it. The star is where a group is joined. Palmitoyl = CCCCCCCCCCCCCCCC(=O)*

Assays:
Assay type in all cases: cell-based
[1] = tested on: LP40-V12 pseudovirus (HIV-1 NL4-3 Env mutant); settings: for IC50: LP40-V12 (Env selected at LP-40 200 µM), TZM-bl cells, 48 h, luciferase, mean ± SD, triplicate, repeated three times
Description: (§1) To simulate the sequence changes of viral resistance genes under different drug concentration pressures, we constructed the Env genes under different drug concentration pressures in the PCDNA3.1 vector and obtained a series of mutations. […] T20-V 6~12, T20-V 13~14, and T 20-V 15~18 were constructed at concentrations of 200 µM (P21), 400 µM (P24), and 2000 µM (P32), respectively. Similarly, the LP-40 pressure concentrations were 0.3 µM, 8 µM, 20 µM, and 200 µM, respectively, and the constructs were numbered LP40-V 1~5, LP40-V 6~8, LP40-V 9~11, and LP40-V 12~15. Resistance mutations will cause varying levels of damage to the function of the pseudoviral envelope proteins. Here, we explored how serial mutations affect the function of viral envelope proteins. Based on this problem, we performed a single round of quantitative P24-infection experiments, packaging the pseudovirus with a previously constructed series of mutant plasmids. We compared the invasion ability of the HIV-1 wild-type and mutant pseudoviruses toward target cells under the same P24 content (using the invasion capacity of each subtype as 100%).
(§2) The infectivity of HIV Env mutants and the inhibitory activities of membrane fusion inhibitors on mutants in TZM-bl cells were measured using a single-cycle infection assay as described previously. Briefly, the HIV pseudovirus was packed using an Env-coding plasmid, and pSG3ΔEnv was co-transfected into HEK293T cells. pSG3ΔEnv encodes an Env-defective, luciferase-expressing HIV-1 genome. After the pseudoviruses were harvested and filtrated, the amount of pseudoviruses was fixed via P24 antigen, and their infectivity was determined in TZM-bl cells. In order to measure the inhibitory activities of the inhibitors, inhibitors diluted serially 3-fold were mixed with an equal volume of pseudoviruses, and then 100 µL 1 × 10^5/mL TZM-bl cells were added to the mixture and incubated at 37 °C with 5% CO2 for 48 h. After that, TZM-bl cells were lysed using reporter lysis buffer, and IC50 values were calculated according to luciferase activity measured by luciferase assay reagents and a luminescence counter (Promega, Madison, WI, USA).

[2] = tested on: LP40-V13 pseudovirus (HIV-1 NL4-3 Env mutant); settings: for IC50: LP40-V13 (Env selected at LP-40 200 µM), TZM-bl cells, 48 h, luciferase, mean ± SD, triplicate, repeated three times
Description: as §1, §2

[3] = tested on: LP40-V8 pseudovirus (HIV-1 NL4-3 Env mutant); settings: for IC50: LP40-V8 (Env selected at LP-40 8 µM), TZM-bl cells, 48 h, luciferase, mean ± SD, triplicate, repeated three times
Description: as §1, §2

[4] = tested on: T20-V13 pseudovirus (HIV-1 NL4-3 Env mutant); settings: for IC50: T20-V13 (Env selected at T20 400 µM, P24), TZM-bl cells, 48 h, luciferase, mean ± SD, triplicate, repeated three times
Description: as §1, §2

[5] = tested on: T20-V16 pseudovirus (HIV-1 NL4-3 Env mutant); settings: for IC50: T20-V16 (Env selected at T20 2000 µM, P32), TZM-bl cells, 48 h, luciferase, mean ± SD, triplicate, repeated three times
Description: as §1, §2

[6] = tested on: T20-V18 pseudovirus (HIV-1 NL4-3 Env mutant); settings: for IC50: T20-V18 (Env selected at T20 2000 µM, P32), TZM-bl cells, 48 h, luciferase, mean ± SD, triplicate, repeated three times
Description: as §1, §2

[7] = tested on: T20-V7 pseudovirus (HIV-1 NL4-3 Env mutant); settings: for IC50: T20-V7 (Env selected at T20 200 µM, P21), TZM-bl cells, 48 h, luciferase, mean ± SD, triplicate, repeated three times
Description: as §1, §2

[8] = tested on: HIV-1 NL4-3 pseudovirus (WT); settings: for IC50: WT NL4-3, TZM-bl cells, 48 h, luciferase, triplicate, repeated three times
Description: as §2

[9] = tested on: HIV-1 NL4-3 gp41 L33S/I37T pseudovirus; settings: Table 3; for IC50: L33S/I37T, TZM-bl cells, 48 h, luciferase, means, triplicate, repeated three times
Description: (§3) We selected LP-40-induced drug resistance typical point mutations and combination mutation pseudoviruses to evaluate the current representative membrane fusion inhibitors.
as §2

[10] = tested on: HIV-1 NL4-3 gp41 L33S/V38A/N42T pseudovirus; settings: Table 3; for IC50: L33S/V38A/N42T, TZM-bl cells, 48 h, luciferase, means, triplicate, repeated three times
Description: as §3, §2

[11] = tested on: HIV-1 NL4-3 gp41 NDQEEDYN pseudovirus; settings: Table 3; for IC50: NDQEEDYN (E109N, N113D, E119Q, D121E, N125E, S129D, H132Y, S133N), TZM-bl cells, 48 h, luciferase, means, triplicate, repeated three times
Description: as §3, §2

[12] = tested on: HIV-1 NL4-3 gp41 NDQEEDYN/L33S/I37T pseudovirus; settings: Table 3; for IC50: NDQEEDYN/L33S/I37T, TZM-bl cells, 48 h, luciferase, means, triplicate, repeated three times
Description: as §3, §2

[13] = tested on: HIV-1 NL4-3 gp41 NDQEEDYN/L33S/V38A/N42T pseudovirus; settings: Table 3; for IC50: NDQEEDYN/L33S/V38A/N42T, TZM-bl cells, 48 h, luciferase, means, triplicate, repeated three times
Description: as §3, §2

[14] = tested on: HIV-1 NL4-3 gp41 V38A/N42T pseudovirus; settings: Table 3; for IC50: V38A/N42T, TZM-bl cells, 48 h, luciferase, means, triplicate, repeated three times
Description: as §3, §2

Compound | IC50 [1] [µM] | IC50 [2] [µM] | IC50 [3] [µM] | IC50 [4] [µM] | IC50 [5] [µM] | IC50 [6] [µM] | IC50 [7] [µM] | IC50 [9] [µM] | IC50 [10] [µM] | IC50 [11] [µM] | IC50 [12] [µM] | IC50 [13] [µM] | IC50 [14] [µM] | also measured
CCCCCCCCCCCCCCCC(=O)NCCCC[C@H](NC(=O)[C@H](CC(=O)O)NC(=O)[C@H](CC(C)C)NC(=O)[C@H](CCC(=O)O)NC(=O)[C@H](CC(C)C)NC(=O)[C@H](CC(C)C)NC(=O)[C@H](CCC(=O)O)NC(=O)[C@H](CCC(N)=O)NC(=O)[C@H](CCC(=O)O)NC(=O)[C@H](CC(N)=O)NC(=O)[C@H](CCCCN)NC(=O)[C@H](CCC(=O)O)NC(=O)[C@H](CCC(N)=O)NC(=O)[C@H](CCC(N)=O)NC(=O)[C@H](CC(N)=O)NC(=O)[C@H](CCC(N)=O)NC(=O)[C@H](CO)NC(=O)[C@H](CCC(=O)O)NC(=O)[C@H](CCC(=O)O)NC(=O)[C@@H](NC(=O)[C@H](CC(C)C)NC(=O)[C@H](CO)NC(=O)[C@H](Cc1c[nH]cn1)NC(=O)[C@@H](NC(=O)[C@H](CC(C)C)NC(=O)[C@H](CO)NC(=O)[C@@H](NC(=O)[C@H](Cc1ccc(O)cc1)NC(C)=O)[C@@H](C)O)[C@@H](C)CC)[C@@H](C)CC)C(N)=O [LP-40] (Ac-YTSLIHSLIEESQNQQEKNEQELLELDK(Palmitoyl)-NH2) | > 6.25 | > 6.25 | 2.88 ± 1.07 | 3.19 ± 0.207 | > 6.25 | > 6.25 | 2.73 ± 0.212 | 2.98 | 4.99 | 0.1 | 3.28 | > 6.25 | 4.07 | Fold change in IC50 ([1]; LP40-V12 relative to WT NL4-3, Table 1): >227.43 fold; Fold change in IC50 ([2]; LP40-V13 relative to WT NL4-3, Table 1): >227.43 fold; Fold change in IC50 ([3]; LP40-V8 relative to WT NL4-3, Table 1): 97.17 fold; Fold change in IC50 ([4]; T20-V13 relative to WT NL4-3, Table 1): 107.32 fold; Fold change in IC50 ([5]; T20-V16 relative to WT NL4-3, Table 1): >227.43 fold; Fold change in IC50 ([6]; T20-V18 relative to WT NL4-3, Table 1): >227.43 fold; Fold change in IC50 ([7]; T20-V7 relative to WT NL4-3, Table 1): 91.82 fold; IC50 ([8]; Table 1, mean ± SD): 0.0297 ± 0.00452 µM; IC50 ([8]; Table 2, mean ± SD): 0.0315 ± 0.0104 µM; IC50 ([8]; Table 3, means): 0.0273 µM; Fold change in IC50 ([8]; WT NL4-3 reference, Table 1): 1.00 fold; Fold change in IC50 ([9]; L33S/I37T relative to WT NL4-3): 109.04 fold; Fold change in IC50 ([10]; L33S/V38A/N42T relative to WT NL4-3): 182.67 fold; Fold change in IC50 ([11]; NDQEEDYN relative to WT NL4-3): 3.67 fold; Fold change in IC50 ([12]; NDQEEDYN/L33S/I37T relative to WT NL4-3): 120.00 fold; Fold change in IC50 ([13]; NDQEEDYN/L33S/V38A/N42T relative to WT NL4-3): >228.77 fold; Fold change in IC50 ([14]; V38A/N42T relative to WT NL4-3): 149.15 fold
Enfuvirtide | 5.87 ± 0.978 | 5.17 ± 2.46 | 1.15 ± 0.137 | 4.01 ± 0.571 | 1.74 ± 0.229 | 6.15 ± 0.475 | 2.81 ± 0.458 | 5.85 | 4.92 | 0.0625 | 3.79 | 4.78 | 3.35 | –
